In brackets after ≈: the same amount, converted by molar mass.
Tests used:
[1] = Volume of distribution at steady state in dog at 0.5 mg/kg, iv; assay type: ADME, organism-based, Canis lupus familiaris; details: in vivo, read-out: Vdss
[2] = Clearance in dog at 0.5 mg/kg, iv; assay type: ADME, organism-based, Canis lupus familiaris; details: in vivo
[3] = Toxicity in rat assessed as behavioral changes at 0.1 to 1 mg/kg/day, sc administered for 10 days; assay type: organism-based; details: in vivo, 240 h
[4] = Stability of the compound in pH 5.5 solution at 50 degC assessed as loss of purity after 1 week; assay type: physicochemical; details: read-out: Drug degradation
[5] = Lipophilicity, log D of the compound at pH 7.4; assay type: physicochemical; details: buffer
[6] = Half life in rat hepatocytes; assay type: ADME, cell-based, Hepatocyte
[7] = Solubility of the compound at pH 4 using amorphous form of sample; assay type: physicochemical; details: buffer
Cytochrome P450 2D6 = Cytochrome P450 2D6 (Homo sapiens, UniProt P10635); test: Inhibition of CYP2D6 (unknown origin); assay type: ADME
Chain of Cytochrome P450 2D6 (P10635 whole entry): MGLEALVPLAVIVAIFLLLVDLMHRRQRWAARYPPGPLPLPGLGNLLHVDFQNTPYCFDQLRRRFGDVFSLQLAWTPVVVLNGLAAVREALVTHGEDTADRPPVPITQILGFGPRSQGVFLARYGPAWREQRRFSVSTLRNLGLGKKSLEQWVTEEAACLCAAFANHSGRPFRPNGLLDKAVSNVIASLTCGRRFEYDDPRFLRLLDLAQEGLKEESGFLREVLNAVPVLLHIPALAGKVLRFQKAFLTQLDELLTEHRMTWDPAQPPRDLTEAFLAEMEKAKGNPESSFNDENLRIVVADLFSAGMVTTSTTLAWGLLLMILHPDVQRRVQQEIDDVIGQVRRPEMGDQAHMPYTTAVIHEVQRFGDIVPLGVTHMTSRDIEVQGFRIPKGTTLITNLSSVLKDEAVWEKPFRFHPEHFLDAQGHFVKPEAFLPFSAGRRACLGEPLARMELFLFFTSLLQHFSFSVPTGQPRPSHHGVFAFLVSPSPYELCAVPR

[8] = Thermodynamic solubility of the compound at pH 6; assay type: physicochemical; details: buffer, read-out: Therm_solubility
[9] = Half life in rat at 2 mg/kg, iv; assay type: ADME, organism-based; details: in vivo

SMILES: Cc1cc(C[C@@H](NC(=O)N2CCC3(CC2)OC(=O)Nc2ncccc23)C(=O)N[C@@H](CC2CCNCC2)C(=O)N2CCN(c3ccncc3)CC2)cc2cn[nH]c12 [HTL-0022562]
- Vd [1]: 0.3 L/kg
- clearance [2]: 10 mL/min/kg
- Activity [3]: Non-Toxic
- degraded at 168 h [4]: 0.8%
- logD [5]: -0.4
- half-life [6]: > 5 h
- solubility [7]: 174 mg/mL (≈ 228 mM)
- IC50 (Cytochrome P450 2D6): > 50.1 µM
- solubility thermodynamic [8]: 2920 µM (≈ 2230 µg/mL)
- half-life [9]: 4.7 h

Source: ChEMBL document CHEMBL4610123, “Structure-Based Drug Discovery of N-((R)-3-(7-Methyl-1H-indazol-5-yl)-1-oxo-1-(((S)-1-oxo-3-(piperidin-4-yl)-1-(4-(pyridin-4-yl)piperazin-1-yl)propan-2-yl)amino)propan-2-yl)-2'-oxo-1',2'-dihydrospiro[piperidine-4,4'-pyrido[2,3-d][1,3]oxazine]-1-carboxamide (HTL22562): A Calcitonin Gene-Related …” (J Med Chem, 2020)
